Source: ChEMBL document CHEMBL4414631 (J Med Chem, 2019)
≈ marks a conversion by molar mass, not a printed value.

Target: Phosphatidylinositol 4,5-bisphosphate 3-kinase catalytic subunit beta isoform (Homo sapiens, UniProt P42338)
Assay: Inhibition of PI3Kbeta (unknown origin) using biotin-PIP3 as substrate preincubated for 15 mins followed by substrate addition and measured after 60 mins by fluorescence polarization assay
Details: not given

Phosphatidylinositol 4,5-bisphosphate 3-kinase catalytic subunit beta isoform, sequence (P42338 whole entry, canonical isoform): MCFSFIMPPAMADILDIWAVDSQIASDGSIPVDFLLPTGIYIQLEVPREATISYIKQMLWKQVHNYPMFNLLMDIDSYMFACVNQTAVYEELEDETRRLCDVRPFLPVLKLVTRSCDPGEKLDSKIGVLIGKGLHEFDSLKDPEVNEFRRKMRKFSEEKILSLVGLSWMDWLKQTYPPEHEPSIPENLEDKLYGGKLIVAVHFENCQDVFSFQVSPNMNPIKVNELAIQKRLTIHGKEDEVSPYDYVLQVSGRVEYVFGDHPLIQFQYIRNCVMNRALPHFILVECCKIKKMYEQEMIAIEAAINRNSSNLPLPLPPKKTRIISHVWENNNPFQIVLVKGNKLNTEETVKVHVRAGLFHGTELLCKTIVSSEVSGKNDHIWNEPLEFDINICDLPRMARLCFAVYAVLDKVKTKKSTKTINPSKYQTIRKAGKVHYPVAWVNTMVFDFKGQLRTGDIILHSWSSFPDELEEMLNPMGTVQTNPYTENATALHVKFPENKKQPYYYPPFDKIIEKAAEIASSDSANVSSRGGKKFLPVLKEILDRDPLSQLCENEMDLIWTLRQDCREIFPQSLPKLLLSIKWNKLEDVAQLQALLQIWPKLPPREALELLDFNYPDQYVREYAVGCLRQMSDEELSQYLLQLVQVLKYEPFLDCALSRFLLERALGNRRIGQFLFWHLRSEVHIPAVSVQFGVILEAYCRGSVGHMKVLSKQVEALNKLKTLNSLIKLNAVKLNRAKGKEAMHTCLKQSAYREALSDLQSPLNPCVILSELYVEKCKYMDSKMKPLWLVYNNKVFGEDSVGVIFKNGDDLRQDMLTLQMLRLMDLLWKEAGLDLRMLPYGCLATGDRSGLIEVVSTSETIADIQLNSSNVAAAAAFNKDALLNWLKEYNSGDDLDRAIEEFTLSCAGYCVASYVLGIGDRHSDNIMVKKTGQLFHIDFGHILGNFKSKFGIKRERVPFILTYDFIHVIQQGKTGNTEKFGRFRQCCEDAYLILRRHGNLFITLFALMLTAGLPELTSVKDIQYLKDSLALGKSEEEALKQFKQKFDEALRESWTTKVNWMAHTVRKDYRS

SMILES	IC50 [nM]
CN(C1CCN(Cc2cc3nc(-c4cnc(N)nc4)nc(N4CCOCC4)c3s2)CC1)S(C)(=O)=O	251
COCC(=O)N(C)C1CCN(Cc2cc3nc(-c4cccc5[nH]ccc45)nc(N4CCOCC4)c3s2)CC1	1000
CC(=O)N(C)C1CCN(Cc2cc3nc(-c4cccc5[nH]ccc45)nc(N4CCOCC4)c3s2)CC1	2000
COCC(=O)N(C)C1CCCN(Cc2cc3nc(-c4cnc(N)nc4)nc(N4CCOCC4)c3s2)C1 (racemic)	1580
COCC(=O)N(C)C1CCN(Cc2cc3nc(-c4cccc5[nH]ncc45)nc(N4CCOCC4)c3s2)C1 (racemic)	5010
CC(=O)N(C)C1CCCN(Cc2cc3nc(-c4cnc(N)nc4)nc(N4CCOCC4)c3s2)C1 (racemic)	2000
CS(=O)(=O)NC1CCCN(Cc2cc3nc(-c4cccc5[nH]ncc45)nc(N4CCOCC4)c3s2)C1 (racemic)	7940
CNC(=O)N(C)C1CCCN(Cc2cc3nc(-c4cccc5[nH]ccc45)nc(N4CCOCC4)c3s2)C1 (racemic)	10000
CN(C1CCCN(Cc2cc3nc(-c4cnc(N)nc4)nc(N4CCOCC4)c3s2)C1)S(C)(=O)=O (racemic)	1000
CS(=O)(=O)NC1CCN(Cc2cc3nc(-c4cnc(N)nc4)nc(N4CCOCC4)c3s2)C1 (racemic)	158
CC(=O)N(C)C1CCN(Cc2cc3nc(-c4cnc(N)nc4)nc(N4CCOCC4)c3s2)C1 (racemic)	631
COCC(=O)N(C)C1CCCN(Cc2cc3nc(-c4cccc5[nH]ccc45)nc(N4CCOCC4)c3s2)C1 (racemic)	3160

Target: Albumin (Homo sapiens, UniProt P02768)
Sequence (P02768 whole entry): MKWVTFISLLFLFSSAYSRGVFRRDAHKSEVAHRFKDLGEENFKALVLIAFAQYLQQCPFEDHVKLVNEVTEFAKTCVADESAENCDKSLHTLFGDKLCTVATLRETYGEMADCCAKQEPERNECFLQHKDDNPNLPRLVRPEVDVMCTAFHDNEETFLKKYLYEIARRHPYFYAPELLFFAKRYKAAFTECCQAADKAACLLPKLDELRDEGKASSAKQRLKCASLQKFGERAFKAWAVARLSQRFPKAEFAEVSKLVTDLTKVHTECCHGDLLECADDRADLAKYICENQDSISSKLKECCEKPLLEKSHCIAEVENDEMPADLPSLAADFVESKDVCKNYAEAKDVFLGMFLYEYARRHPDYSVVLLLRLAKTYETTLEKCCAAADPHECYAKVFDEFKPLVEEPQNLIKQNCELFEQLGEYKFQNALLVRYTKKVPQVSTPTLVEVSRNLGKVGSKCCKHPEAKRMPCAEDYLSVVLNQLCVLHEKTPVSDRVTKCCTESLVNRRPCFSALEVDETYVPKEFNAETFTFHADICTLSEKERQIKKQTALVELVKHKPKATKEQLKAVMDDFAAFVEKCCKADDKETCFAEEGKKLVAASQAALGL
Assay: Binding affinity to human serum albumin by HPLC analysis
Format: ADME
Details: isolated protein

SMILES	Activity [%]
CN(C1CCN(Cc2cc3nc(-c4cnc(N)nc4)nc(N4CCOCC4)c3s2)CC1)S(C)(=O)=O	87.8
COCC(=O)N(C)C1CCN(Cc2cc3nc(-c4cccc5[nH]ccc45)nc(N4CCOCC4)c3s2)CC1	94.3
CC(=O)N(C)C1CCN(Cc2cc3nc(-c4cccc5[nH]ccc45)nc(N4CCOCC4)c3s2)CC1	94.5
CS(=O)(=O)NC1CCN(Cc2cc3nc(-c4cnc(N)nc4)nc(N4CCOCC4)c3s2)C1 (racemic)	80.9
COCC(=O)N(C)C1CCCN(Cc2cc3nc(-c4cccc5[nH]ccc45)nc(N4CCOCC4)c3s2)C1 (racemic)	95.2

System: not listed separately
Assay: Solubility of compound by CLND method
Format: physicochemical
Details: not given

SMILES	solubility kinetic [µM]
CN(C1CCN(Cc2cc3nc(-c4cnc(N)nc4)nc(N4CCOCC4)c3s2)CC1)S(C)(=O)=O	118 (≈ 61.2 µg/mL)
COCC(=O)N(C)C1CCN(Cc2cc3nc(-c4cccc5[nH]ccc45)nc(N4CCOCC4)c3s2)CC1	238 (≈ 127 µg/mL)
CS(=O)(=O)NC1CCN(Cc2cc3nc(-c4cnc(N)nc4)nc(N4CCOCC4)c3s2)C1 (racemic)	≥ 491
COCC(=O)N(C)C1CCCN(Cc2cc3nc(-c4cccc5[nH]ccc45)nc(N4CCOCC4)c3s2)C1 (racemic)	85 (≈ 45.4 µg/mL)

System: not listed separately
Assay: Lipophilicity, logD of compound at pH 7.4 by HPLC-MS analysis
Details: buffer

SMILES	logD
CN(C1CCN(Cc2cc3nc(-c4cnc(N)nc4)nc(N4CCOCC4)c3s2)CC1)S(C)(=O)=O	3.3
COCC(=O)N(C)C1CCN(Cc2cc3nc(-c4cccc5[nH]ccc45)nc(N4CCOCC4)c3s2)CC1	4.6
CC(=O)N(C)C1CCN(Cc2cc3nc(-c4cccc5[nH]ccc45)nc(N4CCOCC4)c3s2)CC1	4.4
COCC(=O)N(C)C1CCCN(Cc2cc3nc(-c4cnc(N)nc4)nc(N4CCOCC4)c3s2)C1 (racemic)	2.8
COCC(=O)N(C)C1CCN(Cc2cc3nc(-c4cccc5[nH]ncc45)nc(N4CCOCC4)c3s2)C1 (racemic)	3.8
CC(=O)N(C)C1CCCN(Cc2cc3nc(-c4cnc(N)nc4)nc(N4CCOCC4)c3s2)C1 (racemic)	3.1
CS(=O)(=O)NC1CCCN(Cc2cc3nc(-c4cccc5[nH]ncc45)nc(N4CCOCC4)c3s2)C1 (racemic)	4.3
CNC(=O)N(C)C1CCCN(Cc2cc3nc(-c4cccc5[nH]ccc45)nc(N4CCOCC4)c3s2)C1 (racemic)	4.5
CN(C1CCCN(Cc2cc3nc(-c4cnc(N)nc4)nc(N4CCOCC4)c3s2)C1)S(C)(=O)=O (racemic)	3.5
CS(=O)(=O)NC1CCN(Cc2cc3nc(-c4cnc(N)nc4)nc(N4CCOCC4)c3s2)C1 (racemic)	2.4
CC(=O)N(C)C1CCN(Cc2cc3nc(-c4cnc(N)nc4)nc(N4CCOCC4)c3s2)C1 (racemic)	2.8
COCC(=O)N(C)C1CCCN(Cc2cc3nc(-c4cccc5[nH]ccc45)nc(N4CCOCC4)c3s2)C1 (racemic)	4.8

Target: Phosphatidylinositol 4,5-bisphosphate 3-kinase catalytic subunit alpha isoform (Homo sapiens, UniProt P42336)
Sequence (P42336 whole entry, canonical isoform): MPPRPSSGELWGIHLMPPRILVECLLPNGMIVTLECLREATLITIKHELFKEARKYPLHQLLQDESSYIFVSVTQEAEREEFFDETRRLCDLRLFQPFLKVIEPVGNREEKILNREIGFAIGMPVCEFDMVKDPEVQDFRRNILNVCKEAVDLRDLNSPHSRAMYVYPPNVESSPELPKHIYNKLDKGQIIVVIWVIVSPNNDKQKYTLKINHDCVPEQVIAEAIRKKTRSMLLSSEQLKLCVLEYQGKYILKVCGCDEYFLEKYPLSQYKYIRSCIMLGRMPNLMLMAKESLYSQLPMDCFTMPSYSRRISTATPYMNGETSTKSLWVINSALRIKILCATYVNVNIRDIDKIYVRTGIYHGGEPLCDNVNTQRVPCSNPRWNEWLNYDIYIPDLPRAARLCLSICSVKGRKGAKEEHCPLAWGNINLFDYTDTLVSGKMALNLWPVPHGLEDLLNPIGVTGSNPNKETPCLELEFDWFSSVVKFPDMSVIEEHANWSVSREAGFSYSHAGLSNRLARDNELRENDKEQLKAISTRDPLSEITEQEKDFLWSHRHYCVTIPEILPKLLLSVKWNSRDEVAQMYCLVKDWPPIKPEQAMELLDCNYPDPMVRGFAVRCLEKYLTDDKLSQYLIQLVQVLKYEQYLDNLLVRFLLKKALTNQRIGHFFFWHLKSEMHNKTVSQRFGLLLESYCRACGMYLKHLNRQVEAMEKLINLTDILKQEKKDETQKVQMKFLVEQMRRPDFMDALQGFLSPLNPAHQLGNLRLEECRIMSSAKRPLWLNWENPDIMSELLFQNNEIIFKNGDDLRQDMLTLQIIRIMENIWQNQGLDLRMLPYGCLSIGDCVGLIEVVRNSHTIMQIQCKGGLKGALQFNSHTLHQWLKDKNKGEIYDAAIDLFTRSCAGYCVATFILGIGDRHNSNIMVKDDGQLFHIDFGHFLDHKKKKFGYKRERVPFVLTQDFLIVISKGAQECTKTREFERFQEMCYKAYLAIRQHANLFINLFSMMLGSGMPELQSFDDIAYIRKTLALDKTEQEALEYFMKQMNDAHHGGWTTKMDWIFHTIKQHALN
Details: not given

SMILES	IC50 [nM]
CN(C1CCN(Cc2cc3nc(-c4cnc(N)nc4)nc(N4CCOCC4)c3s2)CC1)S(C)(=O)=O	15.8
COCC(=O)N(C)C1CCN(Cc2cc3nc(-c4cccc5[nH]ccc45)nc(N4CCOCC4)c3s2)CC1	10000
CC(=O)N(C)C1CCN(Cc2cc3nc(-c4cccc5[nH]ccc45)nc(N4CCOCC4)c3s2)CC1	3160
COCC(=O)N(C)C1CCCN(Cc2cc3nc(-c4cnc(N)nc4)nc(N4CCOCC4)c3s2)C1 (racemic)	100
COCC(=O)N(C)C1CCN(Cc2cc3nc(-c4cccc5[nH]ncc45)nc(N4CCOCC4)c3s2)C1 (racemic)	631
CC(=O)N(C)C1CCCN(Cc2cc3nc(-c4cnc(N)nc4)nc(N4CCOCC4)c3s2)C1 (racemic)	63.1
CS(=O)(=O)NC1CCCN(Cc2cc3nc(-c4cccc5[nH]ncc45)nc(N4CCOCC4)c3s2)C1 (racemic)	501
CNC(=O)N(C)C1CCCN(Cc2cc3nc(-c4cccc5[nH]ccc45)nc(N4CCOCC4)c3s2)C1 (racemic)	3160
CN(C1CCCN(Cc2cc3nc(-c4cnc(N)nc4)nc(N4CCOCC4)c3s2)C1)S(C)(=O)=O (racemic)	39.8
CS(=O)(=O)NC1CCN(Cc2cc3nc(-c4cnc(N)nc4)nc(N4CCOCC4)c3s2)C1 (racemic)	10
CC(=O)N(C)C1CCN(Cc2cc3nc(-c4cnc(N)nc4)nc(N4CCOCC4)c3s2)C1 (racemic)	20
COCC(=O)N(C)C1CCCN(Cc2cc3nc(-c4cccc5[nH]ccc45)nc(N4CCOCC4)c3s2)C1 (racemic)	3160

Target: T1, Phosphatidylinositol 4,5-bisphosphate 3-kinase catalytic subunit delta isoform (Homo sapiens, UniProt O00329)
T1 sequence (O00329 whole entry): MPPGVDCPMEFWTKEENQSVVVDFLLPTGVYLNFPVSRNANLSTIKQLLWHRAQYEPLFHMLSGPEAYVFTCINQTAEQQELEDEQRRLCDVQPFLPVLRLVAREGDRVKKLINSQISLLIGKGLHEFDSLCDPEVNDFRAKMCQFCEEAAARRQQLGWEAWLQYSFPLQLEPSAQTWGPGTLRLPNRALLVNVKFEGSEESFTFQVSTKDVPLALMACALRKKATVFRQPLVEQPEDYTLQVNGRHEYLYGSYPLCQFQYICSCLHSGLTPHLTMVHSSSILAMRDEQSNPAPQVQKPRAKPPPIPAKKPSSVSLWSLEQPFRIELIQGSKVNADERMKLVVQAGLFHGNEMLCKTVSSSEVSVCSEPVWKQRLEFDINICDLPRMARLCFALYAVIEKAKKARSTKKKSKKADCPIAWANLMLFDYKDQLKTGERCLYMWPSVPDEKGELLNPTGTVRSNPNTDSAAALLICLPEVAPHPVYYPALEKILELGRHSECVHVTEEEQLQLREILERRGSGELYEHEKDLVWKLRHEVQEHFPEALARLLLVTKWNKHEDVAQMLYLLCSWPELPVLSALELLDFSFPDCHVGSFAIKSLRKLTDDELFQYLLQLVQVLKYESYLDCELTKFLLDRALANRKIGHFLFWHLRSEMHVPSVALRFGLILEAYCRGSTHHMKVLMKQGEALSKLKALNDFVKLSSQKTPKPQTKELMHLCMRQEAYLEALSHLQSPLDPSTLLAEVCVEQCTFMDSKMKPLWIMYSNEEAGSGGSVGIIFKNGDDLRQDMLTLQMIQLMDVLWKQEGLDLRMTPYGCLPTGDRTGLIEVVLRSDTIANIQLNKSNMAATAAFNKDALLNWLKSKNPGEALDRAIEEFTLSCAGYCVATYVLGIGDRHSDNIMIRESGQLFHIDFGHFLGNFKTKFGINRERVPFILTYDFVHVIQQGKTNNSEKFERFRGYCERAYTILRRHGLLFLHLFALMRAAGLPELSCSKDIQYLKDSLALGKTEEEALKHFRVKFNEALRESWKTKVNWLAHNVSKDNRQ
Details: not given

SMILES	IC50 [nM]
CN(C1CCN(Cc2cc3nc(-c4cnc(N)nc4)nc(N4CCOCC4)c3s2)CC1)S(C)(=O)=O	7.94
COCC(=O)N(C)C1CCN(Cc2cc3nc(-c4cccc5[nH]ccc45)nc(N4CCOCC4)c3s2)CC1	12.6
CC(=O)N(C)C1CCN(Cc2cc3nc(-c4cccc5[nH]ccc45)nc(N4CCOCC4)c3s2)CC1	12.6
COCC(=O)N(C)C1CCCN(Cc2cc3nc(-c4cnc(N)nc4)nc(N4CCOCC4)c3s2)C1 (racemic)	50.1
COCC(=O)N(C)C1CCN(Cc2cc3nc(-c4cccc5[nH]ncc45)nc(N4CCOCC4)c3s2)C1 (racemic)	79.4
CC(=O)N(C)C1CCCN(Cc2cc3nc(-c4cnc(N)nc4)nc(N4CCOCC4)c3s2)C1 (racemic)	15.8
CS(=O)(=O)NC1CCCN(Cc2cc3nc(-c4cccc5[nH]ncc45)nc(N4CCOCC4)c3s2)C1 (racemic)	50.1
CNC(=O)N(C)C1CCCN(Cc2cc3nc(-c4cccc5[nH]ccc45)nc(N4CCOCC4)c3s2)C1 (racemic)	126
CN(C1CCCN(Cc2cc3nc(-c4cnc(N)nc4)nc(N4CCOCC4)c3s2)C1)S(C)(=O)=O (racemic)	5.01
CS(=O)(=O)NC1CCN(Cc2cc3nc(-c4cnc(N)nc4)nc(N4CCOCC4)c3s2)C1 (racemic)	12.6
CC(=O)N(C)C1CCN(Cc2cc3nc(-c4cnc(N)nc4)nc(N4CCOCC4)c3s2)C1 (racemic)	12.6
COCC(=O)N(C)C1CCCN(Cc2cc3nc(-c4cccc5[nH]ccc45)nc(N4CCOCC4)c3s2)C1 (racemic)	20

Target: Phosphatidylinositol 4,5-bisphosphate 3-kinase catalytic subunit gamma isoform (Homo sapiens, UniProt P48736)
Sequence (P48736 whole entry, canonical isoform): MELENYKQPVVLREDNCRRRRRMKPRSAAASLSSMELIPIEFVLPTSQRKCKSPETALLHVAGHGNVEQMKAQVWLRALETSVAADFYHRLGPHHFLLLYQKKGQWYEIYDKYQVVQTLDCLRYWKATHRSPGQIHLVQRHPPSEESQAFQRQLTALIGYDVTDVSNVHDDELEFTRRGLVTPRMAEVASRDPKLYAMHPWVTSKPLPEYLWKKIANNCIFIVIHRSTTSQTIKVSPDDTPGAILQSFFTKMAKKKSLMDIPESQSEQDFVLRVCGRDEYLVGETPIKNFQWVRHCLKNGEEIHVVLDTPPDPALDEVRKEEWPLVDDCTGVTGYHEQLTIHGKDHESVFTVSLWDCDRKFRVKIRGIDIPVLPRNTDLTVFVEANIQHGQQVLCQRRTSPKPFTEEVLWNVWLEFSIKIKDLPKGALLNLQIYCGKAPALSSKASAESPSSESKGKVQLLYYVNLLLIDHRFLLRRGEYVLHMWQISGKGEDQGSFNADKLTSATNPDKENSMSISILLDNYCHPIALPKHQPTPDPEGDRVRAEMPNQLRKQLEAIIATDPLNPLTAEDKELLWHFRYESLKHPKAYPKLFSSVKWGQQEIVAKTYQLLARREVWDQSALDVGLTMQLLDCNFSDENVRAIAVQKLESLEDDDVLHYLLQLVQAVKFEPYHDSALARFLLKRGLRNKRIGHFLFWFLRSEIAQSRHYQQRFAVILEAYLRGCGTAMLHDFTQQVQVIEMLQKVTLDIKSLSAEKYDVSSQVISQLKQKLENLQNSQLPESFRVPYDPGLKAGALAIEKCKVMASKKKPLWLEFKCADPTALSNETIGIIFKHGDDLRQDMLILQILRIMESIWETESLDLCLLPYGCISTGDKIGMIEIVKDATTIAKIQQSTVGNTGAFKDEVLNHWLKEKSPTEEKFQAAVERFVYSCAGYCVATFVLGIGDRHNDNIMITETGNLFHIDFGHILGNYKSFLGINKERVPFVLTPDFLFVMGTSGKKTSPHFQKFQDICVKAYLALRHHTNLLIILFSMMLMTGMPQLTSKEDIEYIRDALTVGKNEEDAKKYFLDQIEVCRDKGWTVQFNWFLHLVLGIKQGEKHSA
Details: not given

SMILES	IC50 [nM]
CN(C1CCN(Cc2cc3nc(-c4cnc(N)nc4)nc(N4CCOCC4)c3s2)CC1)S(C)(=O)=O	25.1
COCC(=O)N(C)C1CCCN(Cc2cc3nc(-c4cnc(N)nc4)nc(N4CCOCC4)c3s2)C1 (racemic)	126
COCC(=O)N(C)C1CCN(Cc2cc3nc(-c4cccc5[nH]ncc45)nc(N4CCOCC4)c3s2)C1 (racemic)	1000
CC(=O)N(C)C1CCCN(Cc2cc3nc(-c4cnc(N)nc4)nc(N4CCOCC4)c3s2)C1 (racemic)	100
CS(=O)(=O)NC1CCCN(Cc2cc3nc(-c4cccc5[nH]ncc45)nc(N4CCOCC4)c3s2)C1 (racemic)	1580
CNC(=O)N(C)C1CCCN(Cc2cc3nc(-c4cccc5[nH]ccc45)nc(N4CCOCC4)c3s2)C1 (racemic)	6310
CN(C1CCCN(Cc2cc3nc(-c4cnc(N)nc4)nc(N4CCOCC4)c3s2)C1)S(C)(=O)=O (racemic)	25.1
CS(=O)(=O)NC1CCN(Cc2cc3nc(-c4cnc(N)nc4)nc(N4CCOCC4)c3s2)C1 (racemic)	20
CC(=O)N(C)C1CCN(Cc2cc3nc(-c4cnc(N)nc4)nc(N4CCOCC4)c3s2)C1 (racemic)	39.8
COCC(=O)N(C)C1CCCN(Cc2cc3nc(-c4cccc5[nH]ccc45)nc(N4CCOCC4)c3s2)C1 (racemic)	2000
